# Experimental data as given in PubChem BioAssay AID1996.
# Details: buffer; pH 7.4; 200.0 µM
row,SMILES,solubility kinetic [µg/mL]
1,Clc1cc2nc(-c3cccnc3Cl)[nH]c2cc1Cl,0.8
2,CN(CC(=O)NCCN1CCOCC1)S(=O)(=O)c1ccc(Cl)cc1,> 56.4
3,O=C(NCC(=O)N1CCN(C/C=C/c2ccccc2)CC1)c1ccc(Br)cc1,15.4
4,CCn1c(C(O)c2cc(OC)ccc2OC)nc2ccccc21 (stereo not drawn),> 46.9
5,O=C(Nc1cccc(S(=O)(=O)Nc2ccccc2F)c1)c1ccco1,11.1
6,CSc1cccc(NC(=S)Nc2cc(C)ccc2C)c1,22.5
7,CN(C)/C(=N\S(=O)(=O)c1ccc(Cl)cc1)c1ccc(F)cc1,> 51.1
8,CC(=O)NS(=O)(=O)c1ccc(NC(=O)[C@@H]2CCCN2S(=O)(=O)c2ccc(Cl)cc2)cc1,> 72.9
9,CCc1nc(SCC(=O)Nc2cccc3ccccc23)[nH]c(=O)c1C,1.8
10,CC(Sc1ccccc1F)C(=O)Nc1ccc2c(c1)OCCO2 (stereo not drawn),> 50
11,Clc1cc(-c2ccccc2)nc(-c2ccccc2)n1,< 0.3
12,O=C(Nc1sc2c(c1C(=O)O)CCCCC2)c1ccccc1,> 47.3
13,CC(NC(=O)c1ccc(F)cc1F)C1CC2CCC1C2 (stereo not drawn),12.7
14,Cc1nc2ccc(NC(=O)N3CCOCC3)cc2nc1C,> 42.9
15,Cc1ccc(-c2csc(NC(=O)C3CC(=O)N(Cc4ccco4)C3)n2)cc1 (stereo not drawn),12.1
16,COC(=O)c1ccccc1NC(=O)Nc1cc(C(C)(C)C)on1,16.1
17,CC(C)(C)OC(=O)N1Cc2ccccc2C[C@H]1C(=O)NC1CCCC1,> 51.7
18,O=C1CN=C(c2ccc(F)cc2)c2oc3ccccc3c2N1,0.4
19,Cc1onc(-c2c(F)cccc2Cl)c1C(=O)N1CCSCC1,> 51.1
20,CCCSc1sc(C(=O)OC)c(-c2cccs2)c1C#N,< 0.7
21,CCc1ccccc1NC(=O)N1CCc2ccccc2C1,> 42.1
22,Cc1ccc2nc(NC(=O)COC(=O)c3cccnc3)sc2c1,7.5
23,Cc1cccc(N2C(=O)c3ccccc3C2=O)n1,> 35.7
24,CC(C)(CC(=O)O)CC(=O)Nc1ccccc1Oc1ccccc1,> 49.1
25,CC(=O)Nc1ccc(S(=O)(=O)NCCCN2CCOCC2)cc1,46.3

row,SMILES,solubility kinetic [µg/mL]
1,COC(=O)c1ccc(N=CC2=C(O)CC(c3ccccc3)CC2=O)cc1 (stereo not drawn),2.1
2,N/C(=N\OC(=O)CC1CCCCC1)c1ccc(Cl)cc1,0.9
3,CCC(=O)Nc1ccc2c(c1)nc1n2CCN(CCOC)C1,> 45.4
4,C=CCSc1nnc(NC(=O)C2=COCCO2)s1,> 42.8
5,CCOc1ncccc1C(=O)Nc1nc(SC)ns1,7.8
6,Cc1ccccc1C(=O)NCC(=O)c1ccccc1,> 38
7,FC(F)(F)c1ccc2c(c1)NCC1CCCN21 (stereo not drawn),13
8,O=C(NCCc1ccccn1)c1cc2ccccc2o1,37.7
9,COCCCn1c(=O)c2sccc2n(Cc2ccc(C)cc2)c1=O,< 0.4
10,O=C1CC(c2ccc(F)cc2)CC2=C1C=Nc1ccccc1N2 (stereo not drawn),0.7
11,Cn1c(=O)[nH]c(=O)c2c1nc1n2CCCN1Cc1ccccc1,8.1
12,CC(=O)N(CCCN(C)C)c1nc2ccc(C)cc2s1.Cl,> 49.2
13,Cc1nn(C)c(C)c1NC(=O)c1ccc(Br)o1,> 44.7
14,CC(NC(=O)c1ccccc1)C(=O)N/N=C/c1ccccc1 (stereo not drawn),> 44.3
15,C(=C\c1ccncc1)/c1ccccc1,11.2
16,Cc1ccc(NC(=O)CCSCCc2ccccn2)cc1,> 45.1
17,Cn1c(=O)[nH]c2ncccc21,> 22.4
18,CNC(=S)NC(CC(=O)OC)c1ccc2c(c1)OCO2 (stereo not drawn),41.8
19,CN(C)C(=O)c1cc(C(=O)c2ccc(Cl)cc2Cl)c[nH]1,23.4
20,CSCCC(NS(=O)(=O)/C=C/c1ccccc1)C(=O)O (stereo not drawn),> 47.3
21,Cc1cc(NC(=O)c2ccc(-c3ccccc3F)o2)no1,0.6
22,CNC(=O)COC(=O)c1c2c(nc3ccccc13)CCC2,39.1
23,CCc1ccc(Nc2nc(C)cc(C)n2)cc1.Cl,18.4
24,CCOC(=O)C(NCCOC)(NC(C)=O)C(F)(F)F (stereo not drawn),> 42.9
25,Cc1ccnc(NC(=O)c2cc(F)c(F)cc2Cl)n1,> 42.6

row,SMILES,solubility kinetic [µg/mL]
1,Cc1oc(C(C)(C)C)cc1C(N)=O,> 27.2
2,Fc1cccc(Nc2nc(Cl)nc(Cl)n2)c1,36.2
3,O=C(CNS(=O)(=O)c1cccs1)N1CCCCC1,> 43.3
4,CCCCN1CNC(=S)N(CCc2ccc(OCC)c(OCC)c2)C1,12.6
5,Cc1nc(N)c(Br)c(C)c1Br,6.2
6,O=C(COC(=O)C1CC2C=CC1C2)Nc1c(Br)cc([N+](=O)[O-])cc1Br (stereo not drawn),57.2
7,CCC1(CC)NC(=O)N(CC(=O)Nc2ccc(OCc3ccccc3)cc2)C1=O,8.9
8,CC(=O)Nc1ccc(S(=O)(=O)NCCC(=O)Nc2ncccc2C)cc1,> 56.5
9,O=c1cc(C(O)C[N+](=O)[O-])occ1OCc1ccccc1 (stereo not drawn),41.6
10,CCOc1ccc(NC(=S)c2ccc3ccccc3n2)cc1,< 0.3
11,O=[N+]([O-])c1ccc(N2CCN(Cc3ccc4c(c3)OCO4)CC2)nc1,7
12,Cc1cc(-c2ccc([N+](=O)[O-])cc2)nc2ccccc12.Cl,1
13,CCCCC(=O)NC1(C(F)(F)F)NC(=O)N(C)C1=O (stereo not drawn),> 42.2
14,O=C(Nc1cccc(S(=O)(=O)NCc2ccco2)c1)c1cccc(Cl)c1,2.5
15,O=C(COC(=O)c1ccc(F)cc1F)NCc1ccc2c(c1)OCO2,4.9
16,Cc1ccc(C)c(NC(=O)C(CC(=O)O)C2CCCO2)c1 (stereo not drawn),40.1
17,CS(=O)(=O)c1ccc(C(=O)NC2CCCc3ccccc32)cc1 (stereo not drawn),35.2
18,COc1ccc(NC(=O)C2C3CCC(O3)C2C(=O)O)c(C)c1 (stereo not drawn),45.4
19,COC(=O)c1sccc1-n1cc(C#N)c(=O)n(C)c1=O,> 43.7
20,CC(=O)NCCc1cnc[nH]1,> 23
21,O=S(=O)(Nc1ccc(Br)cc1)N1CCOCC1,> 48.2
22,COC(=O)c1ccccc1NCC(=O)c1ccc(OC)cc1,11.2
23,O=S(=O)(c1ccsc1)N1CC=C(c2ccccc2)CC1,3.8
24,CCOc1ccc(NC(=O)C2CC3CCC2C3)cc1 (stereo not drawn),6.1
25,C=CCN(Cc1nc(-c2ccccc2)no1)C(=O)c1ccco1,38.4

row,SMILES,solubility kinetic [µg/mL]
1,COc1ccc(NC(=O)CCNC(=O)c2ccco2)cc1OC,47.3
2,CN(Cc1ccccc1)C(=O)c1cccnc1,> 33.9
3,CC(C)CN1CCN(Cc2cccc3cccnc23)CC1CCO (stereo not drawn),37.1
4,CCCc1ccc(OCc2ccc(C(=O)N3CCCC3)o2)cc1,5.9
5,O=C(O)Cc1c(-c2ccccc2)c2cc(Cl)ccc2[nH]c1=O,> 47.1
6,Cc1cc(C)nc(NC(=O)c2ccc(C)c(C)c2)n1,35.2
7,CCN(C(=O)COC(=O)c1[nH]c(=O)[nH]c(=O)c1N)c1ccccc1,39.3
8,CCCOc1ccc(C(=O)Nc2ccc3c(c2)OCCO3)cc1,1
9,COc1ccc(N2CCN(CC(=O)NC(C)c3ccccc3)CC2)cc1 (stereo not drawn),45.1
10,CC(C)c1ccc(OCC(=O)N2CCc3ccccc3C2)cc1,9
11,O=C(COc1ccccc1[N+](=O)[O-])NC1CC1,29.1
12,CCC(C(=O)NC(C)c1ccccc1)C(=O)NC(C)c1ccccc1 (stereo not drawn),6.8
13,COc1ccccc1N1C(=O)CC(=O)NC1=O,> 35.1
14,COc1cccc(Nc2nc(N)nc(CCl)n2)c1,> 39.9
15,OCCN1CCN(Cc2ccc3ccccc3c2)CC1,26.9
16,COc1cc(C2NC(=O)c3ccccc3O2)ccc1OC(C)C (stereo not drawn),5.9
17,NS(=O)(=O)c1ccc(NC(=S)NC(=O)c2cccs2)cc1,6.2
18,O=C(c1cc(-c2ccccc2)on1)N1CCC2(CC1)OCCO2,> 47.2
19,CC1CC(C)CN(C(=O)COC(=O)c2ccc3ncsc3c2)C1 (stereo not drawn),44.9
20,O=C(CSc1ncnc2sccc12)N1CCCCC1,> 44
21,Cc1ccc(F)c(NC(=O)CCOc2ccccc2C)c1,25.5
22,COc1ccc(NC(=O)c2ccc3ccccc3c2)cc1,< 0.6
23,COc1cc([N+](=O)[O-])ccc1NC(=O)CN1CCCC1,37.2
24,CCNC(=O)CCSc1nc(C)cc(C)n1,> 35.9
25,CCN(CC)c1ccc(/C=C(/C#N)C(=O)NC(C)C)o1,38.6

row,SMILES,solubility kinetic [µg/mL]
1,O=C(Oc1cc(Cl)cc(Cl)c1)c1cnc2n(c1=O)CCS2,43.9
2,c1ccc2[nH]c(CCCc3nc4ccccc4[nH]3)nc2c1,29.7
3,Cl.OC(c1ccc(Cl)cc1)C(CN1CCOCC1)c1ccccc1 (stereo not drawn),> 55.2
4,O=C(CCCc1nc2ccccc2s1)Nc1ccccc1,9.9
5,O=C(CN1CCCCCC1)Nc1ccc(Br)cn1,33.7
6,Cc1ccc(-c2nc(N)sc2C)cc1,30.2
7,CCc1ncc(C)[nH]1,> 16.5
8,O=C(Cc1ccc(Br)cc1)N1CCc2ccccc2C1,3.9
9,O=C1C(Cc2ccc3[nH]ccc3c2)NC(=S)N1c1ccccc1 (stereo not drawn),> 48.2
10,Cc1ccc(OC(C)C(=O)Nc2ccncc2)cc1 (stereo not drawn),31.7
11,O=c1cnc2ccccc2n1Cc1ccccc1C(F)(F)F,43.1
12,O=c1nc(Nc2ccc([N+](=O)[O-])cc2)[nH]c(=O)[nH]1,26.2
13,COc1ccccc1OCc1nc(C#N)c(N2CCCC2)o1,39.1
14,CC(C(Sc1ccccc1N)c1ccccc1)[N+](=O)[O-] (stereo not drawn),15.1
15,COc1ccccc1NS(=O)(=O)c1ccc(OC)c([N+](=O)[O-])c1,> 50.8
16,Cc1ccc(C(=O)OCC(=O)NCCc2ccc(S(N)(=O)=O)cc2)o1,> 55
17,Cc1cc(Nc2ccc(C)c(C)c2)c2ccccc2n1,> 39.4
18,O=C1/C(=C/c2ccco2)SC(=S)N1CC1CCCO1 (stereo not drawn),6.6
19,CCOC(=O)CNc1nc(Cl)nc(N2CCCCC2)n1,12.3
20,O=C(O)/C=C/c1cnc2ccccc2n1,> 30
21,COc1ccc(CCNCc2ccccc2F)cc1.O=C(O)C(=O)O,46.4
22,CC1CN(CCc2ccccc2)C(C)C/C1=N/O (stereo not drawn),32
23,CCC1CCCCN1C(=O)c1ccc([N+](=O)[O-])o1 (stereo not drawn),> 37.8
